Experimental findings from patent publication US7157491B2, “Aryl-carbaldehyde oxime derivatives and their use as estrogenic agents” (Wyeth, priority 2003, dated 2007) are described below.

For data set [1], the target named is T1, human ERα (Homo sapiens, UniProt P03372).
T1 construct: made in house; host or cells: E. coli
T1 sequence (P03372 311-547 limits assumed): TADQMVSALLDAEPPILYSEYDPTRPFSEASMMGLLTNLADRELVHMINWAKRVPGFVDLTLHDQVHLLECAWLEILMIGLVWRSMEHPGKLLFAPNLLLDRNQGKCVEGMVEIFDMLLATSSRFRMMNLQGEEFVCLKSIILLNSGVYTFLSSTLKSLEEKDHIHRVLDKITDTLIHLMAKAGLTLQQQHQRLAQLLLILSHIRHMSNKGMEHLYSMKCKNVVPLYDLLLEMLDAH
Nature of the data set: Competition with [3H]-17β-estradiol for binding to ERα ligand binding domain (E. coli lysate). To be noted: 2 nM [3H]-17β-estradiol, 5-15 hours at room temperature; concentration that decreases total 17β-estradiol binding by 50%. Here is the method:
(§1) Representative examples of the invention were evaluated for their ability to compete with 17β-estradiol for both ERα and ERβ. This test procedure provides the methodology for one to determine whether a particular compound binds to the estrogen receptor (and is therefore “estrogenic”) and whether there is selectivity for ERα or ERβ. […] 17β-estradiol is included as a standard reference for comparison. The procedure used is briefly described below. A crude lysate of E. coli expressing the estrogen receptor ligand binding domains (D, E, & F) of human ERα or ERβ was prepared. Both receptors and compounds were diluted in 1× Dulbecco's PBS (DPBS) supplemented with 1 mM EDTA. Using a high binding masked microtiter plate, 100 uL of receptor (1 uG/well) was combined with 2 nM [^3H]-17β-estradiol and various concentrations of compound. After between 5 and 15 hours at room temperature, the plates were washed with DPBS/1 mM EDTA and bound radioactivity determined by liquid scintillation counting.

Data set [2] deals with T2, human ERβ (Homo sapiens, UniProt Q92731).
T2 construct: made in house; host or cells: E. coli
T2 sequence (Q92731 264-498 limits assumed): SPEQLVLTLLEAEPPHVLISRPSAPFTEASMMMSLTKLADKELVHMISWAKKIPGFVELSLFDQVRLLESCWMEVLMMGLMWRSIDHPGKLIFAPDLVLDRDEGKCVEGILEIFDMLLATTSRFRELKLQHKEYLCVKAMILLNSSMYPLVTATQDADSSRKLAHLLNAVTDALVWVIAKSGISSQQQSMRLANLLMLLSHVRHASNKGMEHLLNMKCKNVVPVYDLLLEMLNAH
Nature of the data set: Competition with [3H]-17β-estradiol for binding to ERβ ligand binding domain (E. coli lysate). To be noted: 2 nM [3H]-17β-estradiol, 5-15 hours at room temperature; concentration that decreases total 17β-estradiol binding by 50%. How it is done: as §1

By melting point is commonly meant the temperature of the solid-liquid transition. Turning to `ON=Cc1ccc(-c2ccc(O)cc2)c2ccccc12` [Example 3, 4-(4-Hydroxyphenyl)-1-naphthaldehyde oxime], the melting point was 200 to 200.5 °C.
Same read-out and setting: for `ON=Cc1ccc(-c2ccc(O)c(F)c2)c2ccccc12` [Example 6, 4-(3-Fluoro-4-hydroxyphenyl)-naphthalene-1-carbaldehyde oxime] the value was 187 to 188 °C.
Still for that read-out and setting: for `ON=Cc1ccc(-c2ccc(O)cc2)c2ccsc12` [Example 12, 4-(4-Hydroxyphenyl)-1-benzothiophene-7-carbaldehyde oxime] the value was 229.5 to 230.5 °C.
Consider `ON=Cc1ccc(-c2ccc(O)cc2)c2sccc12` [Example 19, 7-(4-Hydroxyphenyl)-1-benzothiophene-4-carbaldehyde oxime], for which the melting point fell in the range of 230 to 231 °C.
The compound `ON=Cc1ccc(-c2ccc(O)cc2)c2occc12` [Example 25, 7-(4-Hydroxyphenyl)-1-benzofuran-4-carbaldehyde oxime] gave a melting point of 216 to 217 °C.
On the same count and under the same terms, for `ON=Cc1ccc(-c2ccc(O)cc2)c2ccoc12` [Example 31, 4-(4-Hydroxyphenyl)-benzofuran-7-carbaldehyde oxime] the value was 219 to 220 °C.
In general, IC50 refers to the concentration that gives 50% inhibition. Read a low IC50 as greater potency. For the compound `ON=Cc1cc(-c2ccc(O)cc2)cc2ccoc12` [Example 37, 5-(4-Hydroxyphenyl)-1-benzofuran-7-carbaldehyde oxime], the figures for the IC50 in data set [1] and in data set [2] were 3220 nM and 326 nM, respectively.
`ON=Cc1cc(-c2ccc(O)cc2)c2occc2c1` [Example 43, 7-(4-Hydroxyphenyl)-benzofuran-5-carbaldehyde oxime] returned a melting point of 192 to 194 °C. Further, the IC50 in data set [1] is > 5000 nM. In data set [2], this compound had an IC50 of 2210 nM.
